# Measurements as given in patent US20090311237A1, “Combination therapy using a soluble hyaluronidase and a bisphosphonate” (priority 2008, published 2009).
# Like-named read-outs stand apart in the source and are kept apart here.
# Assays:
# [1] = Urinary excretion of unchanged ZA in pigs; assay type: in vivo, pig; conditions: for Dose Amt 2 hr, Mean / Dose Amt 2 hr, Median: n 4; for mean percent of dose excreted unchanged in urine: pig, first 2 hours post dose
# Procedure: Following ZA dose administration, serial blood samples were collected via vascular access ports (VAPs) for serum preparation and determination of ZA concentrations. […] Urine samples were also collected to compare excretion characteristics between IV and SC routes of administration.
# Serum concentration of ZA was determined using a qualified LC-MS-MS assay after derivatization with diazomethane (Zhu, L S et al. (2006) Rapid Commun. Mass Spectrom. 20: 3421-3426; “Qualification Data of An LC-MS/MS Method for the Determination of Zoledronate in Porcine Serum”, MDS Pharma Services Study No. AA43671-01, Report Date 14 Sep. 2007). The assay range was from 2.0 to 400 ng/mL with a lower limit of quantitation (LLOQ) at 2.0 ng/mL. Urine concentration of ZA was determined by a similar well qualified LC-MS-MS method (“Qualification Data of An LC-MS/MS Method for the Determination of Zoledronate in Porcine Urine”, MDS Pharma Services Study No. AA43671-02, Report Date 14 Sep. 2007) with an assay LLOQ at 10 ng/mL.
# Amount of ZA excreted unchanged in urine was determined for the collection interval from dosing to 2-hour post dose and compared between dose routes and co-administration with rHuPH20.
# Urine sample volumes and concentration of ZA in the samples were used to calculate the amount of unchanged ZA excreted via the kidneys. Since continuous collection was halted at 2 hours post dose, the percent of administered ZA dose that were renally excreted was not determined. However, the percent of dose excreted within the 2-hour collection interval was estimated with the relationship that the systemically available SC ZA dose is equal to: […]
# [2] = test system: Sprague Dawley rats; experiment: Semi-quantitative histopathology of skin at injection site after ID zoledronic acid with or without rHuPH20; assay type: in vivo; set-up: key to Necrosis: Mid-dermis / Infiltration: Focal / Infiltration: Muscular / Necrosis: Epidermis / Infiltration: Skin Diffuse / Infiltration: Muscle: —: Dash indicates no incidence of indicated finding; key to Infiltration: Skin Focal: —: Dash indicates no incidence of the indicated observation; conditions: rat ID, 4 days
# Procedure: Nine to ten week old female Sprague Dawley rats, having approximate body weight of 200-250 grams, were employed for the study. One day prior to injection, rats were shaved and hair on the back and flank area were removed by Nair® cream (exposure less than 1 min to depilation cream) followed by deep wash with warm tap water. On the day of dosing, all rats were injected intradermally in flank area (one or two injection spots per side), with 0.1 or 0.2 mL as indicated of zoledronic acid solution, with or without rHuPH20, at each corresponding concentration as shown in study design table. Injection site appearance was observed and quantified by blind assessment each day following the injection until the end of the study, at which time animals were sacrificed and the skin around the dosing area as well as a part of the skin that was not effected by the dosing were collected and fixed in 10% neutral buffered formalin (NBF) and further embedded in paraffin, 5 μm sections were cut for H&E stain and histopathology evaluation.
# Lesion area was calculated by the following formula: W×L×¼π. Quantitative results were analyzed using one-way analysis of variance (ANOVA) method, followed by Dunnett's comparison method (Prizm 4 program). The probability values of less than 0.05 (two-tailed) were used as the critical level of significance for all tests. Groups with a sample size of two were excluded from analysis. If the sample size was 2 for the control group, there were no statistical analyses at that interval for any of the groups. Histopathologic findings were characterized by semi-quantitative analysis of necrosis and infiltration in the skin tissue. The incidences of each finding were compared with control groups by Chi-square test.
# Prior to ZA intradermal injection, rats were randomized by body weight into 7 groups of 1 or 2 rats per group (Table 2). Rats were injected with either 0.1 mL or 0.2 mL of each corresponding concentration intradermally at two separate locations on each shaved flank side for a total of 4 injections for each animal. Injection sites were observed daily post-injection for four days. Pictures of injection site reaction (ISR) area were captured by digital camera and lesion area was scored for induration, erythema, or ulceration. Two perpendicular diameters (width & length) of injection site lesion were measured by microcaliper. The lesion area was defined as the area bounded by the outer edge of the erythemic zone. Upon completion of the study, the animals were euthanized and skin at the injection site and from an untreated area of the back of the rat were excised, mounted flat onto a piece of cardboard, and placed in 10% NBF.
# A series of experiments were conducted in which various dosing concentrations of rHuPH20 were tested for the ability to reduce acute injection site lesions. Prior to ZA intra-dermal injection, rats were randomized by body weight into 11 groups of 2 rats per group. Rats were injected intradermally with 0.1 mL of each co-formulated solution as shown in Table 5 and observed daily with ISR development assessed as in Section B. Four days after injection, rats were sacrificed and the skin at the injection site as well as untreated skin from the back was excised, mounted flat onto a piece of cardboard, and placed in 10% NBF. […]
# [3] = IV infusion; cited from earlier work
# [4] = cited from earlier work; for IV MRT: IV […] infusion, calculated from published ZA PK data
# [5] = Study Group 1, IV infusion, ZA […], dosing to 2 h post dose, n 3
# [6] = Study Group 2, SC, […] dose only
# [7] = Study Group 2, SC, n 5, dosing to 2 h post dose
# [8] = Study Group 3, SC with rHuPH20, […] dose only
# [9] = Study Group 3, SC with rHuPH20, n 4, dosing to 2 h post dose
smiles,measurement,setting,value
"O=P(O)(O)C(O)(Cn1ccnc1)P(=O)(O)O [ZA, 1-hydroxy-2-(1H-imidazol-1-yl)ethylidene-1,1-bisphosphonic acid]","Dose Excreted, Mean",[1]; [5],11.40%
same,"Dose Excreted, Median",[1]; [5],10.71%
same,"Dose Amt 2 hr, Mean",[1]; [6],2.87 mg
same,"Dose Amt 2 hr, Median",[1]; [6],2.88 mg
same,"Dose Excreted, Mean",[1]; [7],9.45%
same,"Dose Excreted, Median",[1]; [7],6.73%
same,"Dose Amt 2 hr, Mean",[1]; [8],3.00 mg
same,"Dose Amt 2 hr, Median",[1]; [8],3.03 mg
same,"Dose Excreted, Mean",[1]; [9],10.66%
same,"Dose Excreted, Median",[1]; [9],12.04%
same,Dose Amt 2 hr (SC AUC(0-2 h) × CL × body weight),"[1]; pig 56, Study Group 3, SC with rHuPH20, ZA […]",3.06 mg
same,Dose Excreted (unchanged in urine),"[1]; pig 57, Study Group 1, IV infusion, ZA […], dosing to 2 h post dose",13.23%
same,Dose Amt 2 hr (SC AUC(0-2 h) × CL × body weight),"[1]; pig 58, Study Group 3, SC with rHuPH20, ZA […]",3.03 mg
same,Dose Excreted (unchanged in urine),"[1]; pig 58, Study Group 3, SC with rHuPH20, ZA […], dosing to 2 h post dose",0.41%
same,Dose Amt 2 hr (SC AUC(0-2 h) × CL × body weight),"[1]; pig 59, Study Group 2, SC, ZA […]",1.44 mg
same,Dose Excreted (unchanged in urine),"[1]; pig 59, Study Group 2, SC, ZA […], dosing to 2 h post dose",5.10%
same,Dose Amt 2 hr (SC AUC(0-2 h) × CL × body weight),"[1]; pig 60, Study Group 2, SC, ZA […]",3.28 mg
same,Dose Excreted (unchanged in urine),"[1]; pig 60, Study Group 2, SC, ZA […], dosing to 2 h post dose",6.73%
same,Dose Excreted (unchanged in urine),"[1]; pig 61, Study Group 1, IV infusion, ZA […], dosing to 2 h post dose",10.71%
same,Dose Amt 2 hr (SC AUC(0-2 h) × CL × body weight),"[1]; pig 62, Study Group 2, SC, ZA […]",2.42 mg
same,Dose Excreted (unchanged in urine),"[1]; pig 62, Study Group 2, SC, ZA […], dosing to 2 h post dose",20.08%
same,Dose Amt 2 hr (SC AUC(0-2 h) × CL × body weight),"[1]; pig 64, Study Group 3, SC with rHuPH20, ZA […]",2.86 mg
same,Dose Excreted (unchanged in urine),"[1]; pig 64, Study Group 3, SC with rHuPH20, ZA […], dosing to 2 h post dose",12.29%
same,Dose Amt 2 hr (SC AUC(0-2 h) × CL × body weight),"[1]; pig 66, Study Group 3, SC with rHuPH20, ZA […]",1.22 mg
same,Dose Excreted (unchanged in urine),"[1]; pig 66, Study Group 3, SC with rHuPH20, ZA […], dosing to 2 h post dose",18.13%
same,Dose Excreted (unchanged in urine),"[1]; pig 67, Study Group 1, IV infusion, ZA […], dosing to 2 h post dose",10.25%
same,Dose Amt 2 hr (SC AUC(0-2 h) × CL × body weight),"[1]; pig 68, Study Group 3, SC with rHuPH20, ZA […]",3.03 mg
same,Dose Excreted (unchanged in urine),"[1]; pig 68, Study Group 3, SC with rHuPH20, ZA […], dosing to 2 h post dose",11.79%
same,Dose Amt 2 hr (SC AUC(0-2 h) × CL × body weight),"[1]; pig 69, Study Group 2, SC, ZA […]",2.83 mg
same,Dose Excreted (unchanged in urine),"[1]; pig 69, Study Group 2, SC, ZA […], dosing to 2 h post dose",10.19%
same,Dose Amt 2 hr (SC AUC(0-2 h) × CL × body weight),"[1]; pig 70, Study Group 2, SC, ZA […]",2.93 mg
same,Dose Excreted (unchanged in urine),"[1]; pig 70, Study Group 2, SC, ZA […], dosing to 2 h post dose",5.17%
same,mean percent of dose excreted unchanged in urine,[1]; Study Group 1 (IV […]),11.40%
same,mean percent of dose excreted unchanged in urine,[1]; Study Group 2 (SC ZA without rHuPH20),9.45%
same,Infiltration: Muscle,"[2]; ZA 0.05 mg/mL, rHuPH20 0 U/ml",—
same,Infiltration: Skin Diffuse,"[2]; ZA 0.05 mg/mL, rHuPH20 0 U/ml",—
same,Necrosis: Epidermis,"[2]; ZA 0.05 mg/mL, rHuPH20 0 U/ml",—
same,Infiltration: Skin Focal,"[2]; ZA 0.4 mg/mL, rHuPH20 0 U/ml",—
same,Infiltration: Muscular,[2]; ZA alone 0.05 mg/mL,—
same,Necrosis: Mid-dermis,[2]; ZA alone 0.05 mg/mL,—
same,Infiltration: Focal,[2]; ZA alone 0.1 mg/mL,—
same,Necrosis: Mid-dermis,[2]; ZA alone 0.1 mg/mL,—
same,Infiltration: Focal,[2]; ZA alone 0.2 mg/mL,—
same,Necrosis: Mid-dermis,[2]; ZA alone 0.2 mg/mL,—
same,Infiltration: Focal,[2]; ZA alone 0.4 mg/mL,—
same,Infiltration: Focal,[2]; ZA alone 0.6 mg/mL,—
same,Infiltration: Focal,[2]; ZA alone 0.8 mg/mL,—
same,patients with skin irritation at the injection site,[3],1%
same,IV MRT,[4]; adjusted to match SC dose 0.25 mg,1.9010 h
same,IV MRT,[4]; adjusted to match SC dose 0.5 mg,2.2330 h
same,IV MRT,[4]; adjusted to match SC dose 1 mg,5.2494 h
same,IV MRT,[4]; adjusted to match SC dose 5 mg,9.1957 h
same,terminal γ phase half-life (T½γ),"[4]; man, IV",~146 h
